Data reported in patent US20100068743A1, “Method for predicting response of cancer patient to anticancer drug treatment” (John Wayne Cancer Institute and Sysmex Corporation, priority 2008, published 2010).

Assays:
[1] = tested on: malignant tumors of breast cancer patients; test: Pathological complete response (pCR) attained by chemotherapy in breast cancer patients; assay type: in vivo, human; settings: individual breast cancer patient, after chemotherapy regimen; 1 = pathological complete response
Description: For breast cancer patients listed in Table 3 shown below, CDK1 expression level, CDK1 active value, CDK2 expression level, CDK2 active value of malignant tumors collected by needle biopsy before receiving chemotherapy are measured, and CDK1 specific activity and CDK2 specific activity are obtained. Further for each of patients shown in Table 3, whether or not pathological complete response (pCR) has been attained by the chemotherapy is shown in Table 3. In the column “pCR” in Table 3, “1” denotes pathological complete response.

[2] = tested on: tumor tissue of breast cancer patients; test: Reduction rate of tumor after chemotherapy (tumor size before and after) in breast cancer patients; assay type: in vivo, human; settings: individual breast cancer patient, after receiving the chemotherapy prescribed in the regimen
Description: Next, CDK1 expression level, CDK1 active value, CDK2 expression level, CDK2 active value of malignant tumors collected by needle biopsy from breast cancer patients before receiving chemotherapy are measured, and CDK1 specific activity and CDK2 specific activity are obtained. Meanwhile, the reduction rate of tumor is obtained by measuring a size of tumor tissue of each patient before and after the chemotherapy. In Table 1, CDK1 SA denotes CDK1 specific activity, CDK2SA denotes CDK2 specific activity, […] denotes cell cycle profile score, and reduction rate of tumor denotes reduction rate of tumors after receiving the chemotherapy prescribed in the regimen. In the column of the regimen, “wT” means paclitaxel, “FEC” means fluorouracil, cyclophosphamide, epirubicin, “CE” means cyclophosphamide, epirubicin, “Doce” means docetaxel, “ZL” means zoladex, “TM” means tamoxifen, and “UFT” means uracil, tegafur.

Q: How did the pCR [1] turn out when CC(=O)O[C@H]1C(=O)[C@@]2(C)[C@H]([C@H](OC(=O)c3ccccc3)[C@]3(O)C[C@H](OC(=O)[C@H](O)[C@@H](NC(=O)c4ccccc4)c4ccccc4)C(C)=C1C3(C)C)[C@]1(OC(C)=O)CO[C@@H]1C[C@@H]2O [wT, paclitaxel] was run?
A: 0

Q: What about the “Reduction rate of tumor” value [2] of the same molecule?
A: 70%
